{"source": "patent US20130224285A1", "about": "“ESTROGEN RECEPTOR ALPHA POLYPEPTIDE SEQUENCE, DIAGNOSTIC AND THERAPEUTIC APPLICATIONS THEREOF” (Universite Libre de Buxelles, priority 2010, published 2013)", "key": {"MCF-7 cells": {"tested_on": "MCF-7 cells", "assay": "Immunoprecipitation (G20 antibody) and Western blot of the endogenous ER-alpha degradation peptide in conditioned medium of treated MCF-7 cells", "assay_type": "cell-based, human", "settings": "conditioned medium of MCF-7 cells; estradiol 10^-8M, diethylstibestrol 10^-8M, 4-OHTamoxifen 10^-7M, Fulvestrant 10^-7M; vs control; FIG. 3; preliminary", "experimental": "MCF-7 breast cancer cell line was cultured for 48 hours in EMEM without Phenol-red, comprising 2 mM glutamine, 100 U/ml penicilline and 100 μg/ml streptomycine, supplemented with 10% steroid-free fetal calf serum. After three washing steps with serum/antibiotic-free EMEM without Phenol-red, the cells were cultured for 4 hours in the presence or absence of the E2 ligand dissolved in serum/antibiotic-free EMEM without Phenol-red, containing only 2 mM glutamine.\nAfter preclearing with 100 μl (50%) immobilised protein G on agarose beads (UltraLink®, Pierce) (2 hours at 4° C.) conditioned media (or EMEM for the negative control) were incubated with antibody G20 (Santa-Cruz) (except for the negative control) overnight at 4° C. After antibody capturing in 100 μl (50%) immobolised proteine G, the resin is heated to 85° C. for 5 minutes in Laemmli without colorant. The protein samples are subsequently separated on a Tris-Tricine 10% (Invitrogen) gel and the peptides are transferred to nitro-cellulose membranes (15% methanol; semi-dry transfer (BioRad apparatus; 24 V; 0.15 mA, 15 minutes). After blocking with 5% milk for 30 minutes, the proteins are detected with chemiluminescence (primary antibody: G20 (1/500; 2 hours); secondary antibody: anti-rabbit (Pierce; 1/6000; 1 hour). […]"}, "proteasome": {"tested_on": "proteasome", "settings": "inhibition of the proteasome; Nawaz et al. 1999 and others; cited from earlier work"}, "[1]": {"tested_on": "MCF-7 breast cancer cell line", "assay": "MCF-7 cell growth with synthetic peptides, crystal violet staining", "assay_type": "cell-based, human", "settings": "10^-5M, 72 hours, EMEM with 10% charcoal-stripped serum, vs control, FIG. 4", "experimental": "In order to provide a proof of principle that secretion of the ER-alpha breakdown product/peptide described here could relay or amplify the effect of estradiol toward the proliferation of ER-alpha-positive cells, we have treated MCF-7 cells with a synthetic peptide corresponding to this sequence (SEQ ID NO:2) and containing its post-translational modifications (FIG. 4). ER-alpha-positive MCF-7 breast cancer cell line were seeded in 96-well plates (3000 cells/well). Cells were then treated with or without (control) ER-alpha-17p or the SEQ ID NO:2 peptide both at 10^−5M for 72 hours. Cell growth was measured by crystal violet staining. Briefly, cell cultures were gently washed once with PBS, fixed with 1% glutaraldehyde in PBS (15 min, room temperature) and stained with 0.1% crystal violet (w/v in ddH2O; 30 min, room temperature). After removal of excess dye by rinsing under gently running tap water, cell-bound crystal violet was extracted with 1% Triton X-100 (v/v in ddH2O; room temperature, under agitation) and measured by spectrometry at 550 nm."}, "ER-alpha": {"tested_on": "ER-alpha", "assay": "ERE-driven luciferase reporter assay in MVLN cells", "assay_type": "cell-based, human", "settings": "10^-5M, 6 hours, serum free, FIG. 6, preliminary", "text": "In order to provide a proof of principle that secretion of the ER-alpha breakdown product/peptide described here could relay or amplify the effect of estradiol toward ER-alpha transcriptional activity, we have treated MVLN cells (MCF-7 stably transfected with an ERE-driven luciferase reporter gene; Pons et al., Biotechniques 1990; 9:450-459) with a synthetic peptide corresponding to this sequence (SEQ ID NO:2) and containing its post-translational modifications in serum free condition (FIG. 6).\nMVLN cells were cultured for 48 hours in EMEM containing 10% of charcoal-stripped serum prior treatment with E2 at 10^−10 M or ER-alpha-17p or SEQ ID NO:2 both at 10^−5M for. After 6 h treatment in serum free condition, cells were washed 2 times with PBS. Luciferase activity was then measured in cell lysates by luminometry using Luciferase Assay System (Promega) according to manufacturer instructions."}, "[2]": {"biological_target": "T1, purified recombinant human ER-alpha (Homo sapiens, UniProt P03372)", "T1 sequence (P03372 1-595)": "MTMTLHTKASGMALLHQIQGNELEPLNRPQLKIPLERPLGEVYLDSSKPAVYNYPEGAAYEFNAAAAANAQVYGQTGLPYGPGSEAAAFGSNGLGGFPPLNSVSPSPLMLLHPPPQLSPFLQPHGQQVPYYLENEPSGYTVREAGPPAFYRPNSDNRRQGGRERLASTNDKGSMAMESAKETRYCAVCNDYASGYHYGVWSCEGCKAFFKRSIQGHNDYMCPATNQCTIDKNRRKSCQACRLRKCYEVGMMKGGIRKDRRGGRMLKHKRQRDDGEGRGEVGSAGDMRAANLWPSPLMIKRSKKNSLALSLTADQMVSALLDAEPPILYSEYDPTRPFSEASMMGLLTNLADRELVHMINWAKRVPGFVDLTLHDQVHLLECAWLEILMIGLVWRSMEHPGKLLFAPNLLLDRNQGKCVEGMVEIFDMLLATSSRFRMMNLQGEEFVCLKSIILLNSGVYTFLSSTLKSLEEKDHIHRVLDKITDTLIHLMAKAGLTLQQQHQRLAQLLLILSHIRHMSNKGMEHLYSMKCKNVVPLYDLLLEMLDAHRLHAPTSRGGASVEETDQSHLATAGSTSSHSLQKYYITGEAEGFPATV", "settings": "Gallo et al. 2007; cited from earlier work"}, "ER-alpha receptor": {"tested_on": "ER-alpha receptor", "settings": "competition with synthetic peptide; Gallo et al. 2007; cited from earlier work"}, "[3]": {"tested_on": "breast cancer cell lines that are ER-alpha-positive", "settings": "Gallo et al. 2007, 2008; cited from earlier work"}}, "note": "Residues, ends and D or L forms follow the SMILES beside them. No end group written: not given here. *: point of attachment. Cbz = O=C(OCc1ccccc1)*"}
{"molecule": "CC/C(=C(\\c1ccc(O)cc1)c1ccc(OCCN(C)C)cc1)c1ccccc1", "note": "[4-OHTamoxifen]", "values": [{"measurement": "production of the endogenous ER-alpha degradation product/peptide", "setting": "MCF-7 cells", "result": "decrease its production"}]}
{"molecule": "C[C@]12CC[C@@H]3c4ccc(O)cc4C[C@@H](CCCCCCCCC[S+]([O-])CCCC(F)(F)C(F)(F)F)[C@H]3[C@@H]1CC[C@@H]2O", "note": "(some centres unmarked) [Fulvestrant]", "values": [{"measurement": "production of the endogenous ER-alpha degradation product/peptide", "setting": "MCF-7 cells", "result": "decrease its production"}]}
{"molecule": "CC(C)C[C@@H](C=O)NC(=O)[C@H](CC(C)C)NC(=O)[C@H](CC(C)C)NC(=O)OCc1ccccc1", "note": "[MG-132] (Cbz-Leu-Leu-Leu-aldehyde)", "values": [{"measurement": "ER-alpha-dependent transcription", "setting": "proteasome", "result": "diminishes ER-alpha-dependent transcription"}]}
{"molecule": "CC(=O)N[C@@H](CSC(=O)[C@]1([C@@H](O)C(C)C)NC(=O)[C@H](C)[C@@H]1O)C(=O)O", "note": "[lactacystine]", "values": [{"measurement": "ER-alpha-dependent transcription", "setting": "proteasome", "result": "diminishes ER-alpha-dependent transcription"}]}
{"molecule": "K268RQRDDGEGRGEVGSAGDMRAANLWPSPLMIKRSKKNSLALSLT311 (KRQRDDGEGRGEVGSAGDMRAANLWPSPLMIKRSKKNSLALSLT; listed as Homo Sapiens) [SEQ ID NO:2, endogenous 44-residue ER-alpha degradation peptide K268-T311]", "values": [{"measurement": "MCF-7 cell proliferation (growth)", "setting": "[1]; listed as ER-alpha-44p", "result": "capable of inducing proliferation of cancer cells"}, {"measurement": "MCF-7 cell proliferation (growth)", "setting": "[1]; listed as SED ID NO:2", "result": "significant increase of their proliferation higher that the control ER-alpha-17p peptide"}, {"measurement": "ER-alpha transcriptional activity (luciferase)", "setting": "ER-alpha", "result": "significant increase of the ER-alpha transcriptional activity higher than the control ER-alpha-17p peptide"}]}
{"molecule": "P295LMIKRSKK303NSLALSLT311 (PLMIKRSKK(Me)NSLALSLT; listed as Homo Sapiens) [ER-alpha-17p]", "values": [{"measurement": "MCF-7 cell proliferation (growth)", "setting": "[1]", "result": "capable of inducing proliferation of cancer cells"}, {"measurement": "binding to purified recombinant human ER-alpha", "setting": "[2]", "result": "binds to purified recombinant human ER-alpha"}, {"measurement": "transcriptional activity of the ER-alpha receptor", "setting": "ER-alpha receptor", "result": "increased transcriptional activity"}, {"measurement": "proliferation of ER-alpha-positive breast cancer cell lines", "setting": "[3]", "result": "increased proliferation"}]}
